Measurements as given in US10174002B2, “Pyridine derivatives as CFTR modulators” (NuBridge BioSciences, priority 2015, dated 2019).
Where a name gives a salt, the structure may show the parent alone.

Biological target: T1, ΔF508 mutant CFTR (Homo sapiens, UniProt P13569, DEL508-508)
T1 construct: expressed in transfected cells; host or cells: Fischer rat thyroid (FRT) cells, co-expressing the halide-sensitive YFP-H148Q/I152L
Assay: Fluorescence Assay of ΔF508 mutant CFTR activity (halide-sensitive YFP quenching by iodide influx in FRT cells)
Assay type: cell-based
Set-up: key: fold of mean activity with forskolin alone (I− quenching rate)
Conditions: test compounds 20 μM with forskolin 20 μM, 20 min; FRT cells expressing ΔF508-CFTR and YFP-H148Q/I152L, incubated at 27° C. 20-24 h; rate of fluorescence quenching by I−, normalized to mean activity with forskolin alone
From the text: The ΔF508 mutant CFTR activities of the CFTR modulators are detected using the Fluorescence Assay developed by Pedemonte (Pedemonte N., et al., Antihypertensive 1,4-dihydropyridines as correctors of the cystic fibrosis transmembrane conductance regulator channel gating defect caused by cystic fibrosis mutations, Mol. Pharmacol., 2005, 68, 1736-1746).
Fischer rat thyroid (FRT) cells, stably transfected with ΔF508 were retransfected with the YFP-H148Q/I152L fluorescent protein. The cells were plated (100,000 cells/well) on black 96-well microplates with clear plastic bottom (Corning Life Sciences, Acton, Mass.).
The 96-well microplates containing FRT cells expressing F508-CFTR and the halide-sensitive YFP were incubated at 27° C. for 20 to 24 h to allow rescue of the mutant protein to the plasma membrane. After incubation, cells were washed with PBS (containing 137 mM NaCl, 2.7 mM KCl, 8.1 mM Na2HPO4, 1.5 mM KH2PO4, 1 mM CaCl2, and 0.5 mM MgCl2) and stimulated for 20 min with forskolin (20 μM) and test compounds (20 μM) in a final volume of 60 μl. Microplates were then transferred to a microplate reader for CFTR activity determination. Each assay consisted of a continuous 14-s fluorescence reading (5 points per second) with 2 s before and 12 s after injection of 165 μl of an iodide-containing solution (PBS with Cl^− replaced by I^−). Final iodide concentration in the wells was 100 mM. […] To determine I^− influx rate, the final 11 s of the data for each well were fitted with an exponential function to extrapolate initial slope. CFTR activity was determined by measuring the rate of fluorescence quenching induced by extracellular addition of I^−. Data are normalized to the mean activity measured in the presence of forskolin alone.

T1 sequence (P13569 with tags, fused parts or gaps DEL508-508): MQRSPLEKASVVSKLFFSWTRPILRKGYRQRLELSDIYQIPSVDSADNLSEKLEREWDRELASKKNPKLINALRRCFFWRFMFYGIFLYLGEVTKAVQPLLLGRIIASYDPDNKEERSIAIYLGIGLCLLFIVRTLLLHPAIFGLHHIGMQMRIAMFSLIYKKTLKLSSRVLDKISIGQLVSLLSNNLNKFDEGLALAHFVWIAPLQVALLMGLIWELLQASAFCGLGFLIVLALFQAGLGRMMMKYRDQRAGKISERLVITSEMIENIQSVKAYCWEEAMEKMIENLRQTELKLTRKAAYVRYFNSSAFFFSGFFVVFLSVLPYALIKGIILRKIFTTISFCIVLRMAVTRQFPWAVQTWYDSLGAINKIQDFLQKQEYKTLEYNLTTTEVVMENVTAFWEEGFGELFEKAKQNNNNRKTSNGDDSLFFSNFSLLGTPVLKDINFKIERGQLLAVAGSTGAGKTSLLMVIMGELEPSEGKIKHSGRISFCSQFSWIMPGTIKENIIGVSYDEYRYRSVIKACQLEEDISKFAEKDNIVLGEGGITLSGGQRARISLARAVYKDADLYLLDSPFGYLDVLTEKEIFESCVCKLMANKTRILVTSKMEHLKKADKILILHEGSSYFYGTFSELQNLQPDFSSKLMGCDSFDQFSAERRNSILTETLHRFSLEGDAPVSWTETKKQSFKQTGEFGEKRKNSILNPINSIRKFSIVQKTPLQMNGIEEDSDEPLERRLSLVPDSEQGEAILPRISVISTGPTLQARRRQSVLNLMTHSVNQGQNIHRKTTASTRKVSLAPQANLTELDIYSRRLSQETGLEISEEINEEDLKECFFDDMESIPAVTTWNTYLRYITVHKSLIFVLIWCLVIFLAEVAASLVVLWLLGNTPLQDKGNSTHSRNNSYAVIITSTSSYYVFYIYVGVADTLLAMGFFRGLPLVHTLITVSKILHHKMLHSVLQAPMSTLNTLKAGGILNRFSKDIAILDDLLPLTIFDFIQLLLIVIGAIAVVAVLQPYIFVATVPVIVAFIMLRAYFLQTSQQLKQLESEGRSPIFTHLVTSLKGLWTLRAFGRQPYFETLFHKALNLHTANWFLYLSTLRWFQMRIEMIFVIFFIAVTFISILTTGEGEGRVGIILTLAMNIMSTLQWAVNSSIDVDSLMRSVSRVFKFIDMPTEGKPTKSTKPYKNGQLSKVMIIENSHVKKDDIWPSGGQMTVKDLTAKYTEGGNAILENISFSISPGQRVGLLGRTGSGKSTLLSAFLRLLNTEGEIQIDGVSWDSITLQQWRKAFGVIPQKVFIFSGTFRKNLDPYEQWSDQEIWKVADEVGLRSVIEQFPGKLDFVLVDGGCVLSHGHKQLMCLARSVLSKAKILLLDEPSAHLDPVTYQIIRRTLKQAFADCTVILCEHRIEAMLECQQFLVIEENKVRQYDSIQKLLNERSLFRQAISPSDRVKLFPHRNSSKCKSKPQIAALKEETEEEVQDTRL

Row | SMILES | CFTR Activity
1 | Cl.NCC(CCl)COc1ccncc1NC(=O)c1ccc(F)c(-c2c(F)cccc2F)n1 (centres unmarked) [Example 30, N-(4-(3-amino-2-(chloromethyl)propoxy)pyridin-5-yl)-6-(2,6-difluorophenyl)-5-fluoropicolinamide hydrochloride] | 1.6
2 | Cl.O=C(Nc1cnccc1OC1CCCNCC1)c1ccc(C(F)(F)F)c(-c2c(F)cccc2F)n1 (centres unmarked) [Example 42, N-(4-(azepan-4-yloxy)pyridin-3-yl)-6-(2,6-difluorophenyl)-5-(trifluoromethyl)picolinamide hydrochloride] | 2.7
3 | O=C(Nc1cnccc1OCC1CCOCC1)c1ccc(C(F)(F)F)c(-c2c(F)cccc2F)n1 [Example 47, 6-(2,6-difluorophenyl)-N-(4-((tetrahydro-2H-pyran-4-yl)methoxy)pyridin-3-yl)-5-(trifluoromethyl)picolinamide] | 0.4
4 | Cl.NCC(CO)COc1ccncc1NC(=O)c1nc(-c2c(F)cccc2F)c(F)cc1N (centres unmarked) [Example 57, 3-amino-N-(4-(3-amino-2-(hydroxymethyl)propoxy)pyridin-3-yl)-6-(2,6-difluorophenyl)-5-fluoropicolinamide hydrochloride] | 2.1
5 | NCC(CCl)Oc1ccncc1NC(=O)c1ccc(F)c(-c2c(F)cccc2F)n1 (centres unmarked) [Example 29, N-(4-((1-amino-3-chloropropan-2-yl)oxy)pyridin-5-yl)-6-(2,6-difluorophenyl)-5-fluoropicolinamide hydrochloride] | 1.8
6 | O=C(Nc1cnccc1OCCCO)c1ccc(F)c(-c2c(F)cccc2F)n1 [Example 17, 6-(2,6-difluorophenyl)-5-fluoro-N-(4-(3-hydroxypropoxy)pyridin-3-yl)picolinamide] | 0.2
7 | CNCCCOc1ccncc1NC(=O)c1ccc(F)c(-c2c(F)cccc2F)n1.Cl [Example 13, 6-(2,6-difluorophenyl)-5-fluoro-N-(4-(3-(methylamino)propoxy)pyridin-3-yl)picolinamide hydrochloride] | 0.6
8 | Cl.Nc1cc(F)c(-c2c(F)cccc2F)nc1C(=O)Nc1cnccc1OC1CCNCC1 [Example 25, 3-amino-6-(2,6-difluorophenyl)-5-fluoro-N-(4-(piperidin-4-yloxy)pyridin-3-yl)picolinamide hydrochloride] | 3.2
9 | Cl.NCCCCOc1ccncc1NC(=O)c1nc(-c2c(F)cccc2F)c(F)cc1N [Example 36, 3-amino-N-(4-(4-aminobutoxy)pyridin-3-yl)-6-(2,6-difluorophenyl)-5-fluoropicolinamide hydrochloride] | 2.3
10 | Cl.NCC(CCl)COc1ccncc1NC(=O)c1nc(-c2c(F)cccc2F)c(F)cc1N (centres unmarked) [Example 34, 3-amino-N-(4-(3-amino-2-(chloromethyl)propoxy)pyridin-3-yl)-6-(2,6-difluorophenyl)-5-fluoropicolinamide hydrochloride] | 2.3
11 | Cl.NCC(CCl)COc1ccncc1NC(=O)c1nc(-c2c(F)cccc2F)c(C(F)(F)F)cc1N (centres unmarked) [Example 55, 3-amino-N-(4-(3-amino-2-(chloromethyl)propoxy)pyridin-3-yl)-6-(2,6-difluorophenyl)-5-(trifluoromethyl)picolinamide hydrochloride] | 5.5
12 | Cl.Nc1cc(F)c(-c2c(F)cccc2F)nc1C(=O)Nc1cnccc1OC1CCNC1 (centres unmarked) [Example 24, 3-amino-6-(2,6-difluorophenyl)-5-fluoro-N-(4-(pyrrolidin-3-yloxy)pyridin-3-yl)picolinamide hydrochloride] | 2.1
13 | CNCCCCOc1ccncc1NC(=O)c1ccc(F)c(-c2c(F)cccc2F)n1.Cl [Example 16, 6-(2,6-difluorophenyl)-5-fluoro-N-(4-(4-(methylamino)butoxy)pyridin-3-yl)picolinamide hydrochloride] | 0.6
14 | Cl.Nc1cc(C(F)(F)F)c(-c2c(F)cccc2F)nc1C(=O)Nc1cnccc1OCC1CNC1 [Example 50, 3-amino-N-(4-(azetidin-3-ylmethoxy)pyridin-3-yl)-6-(2,6-difluorophenyl)-5-(trifluoromethyl)picolinamide hydrochloride] | 2.7
15 | Cl.O=C(Nc1cnccc1OC1CCCNCC1)c1ccc(F)c(-c2c(F)cccc2F)n1 (centres unmarked) [Example 6, N-(4-(azepan-4-yloxy)pyridin-3-yl)-6-(2,6-difluorophenyl)-5-fluoropicolinamide hydrochloride] | 1.9
16 | Cl.O=C(Nc1cnccc1OC1CCNCC1)c1ccc(C(F)(F)F)c(-c2c(F)cccc2F)n1 [Example 45, 6-(2,6-difluorophenyl)-N-(4-(piperidin-4-yloxy)pyridin-3-yl)-5-(trifluoromethyl)picolinamide hydrochloride] | 2.7
17 | Cl.NC1CCCC(Oc2ccncc2NC(=O)c2ccc(C(F)(F)F)c(-c3c(F)cccc3F)n2)C1 (centres unmarked) [Example 60, N-(4-((3-aminocyclohexyl)oxy)pyridin-3-yl)-6-(2,6-difluorophenyl)-5-(trifluoromethyl)picolinamide hydrochloride] | 5.7
18 | Cl.NC1CCC(Oc2ccncc2NC(=O)c2ccc(F)c(-c3c(F)cccc3F)n2)CC1 (centres unmarked) [Example 10, N-(4-(((1r,4r)-4-aminocyclohexyl)oxy)pyridin-3-yl)-6-(2,6-difluorophenyl)-5-fluoropicolinamide hydrochloride] | 2.2
19 | Cl.NCC(CO)COc1ccncc1NC(=O)c1ccc(C(F)(F)F)c(-c2c(F)cccc2F)n1 (centres unmarked) [Example 58, N-(4-(3-amino-2-(hydroxymethyl)propoxy)pyridin-3-yl)-6-(2,6-difluorophenyl)-5-(trifluoromethyl)picolinamide hydrochloride] | 2.6
20 | Cl.O=C(Nc1cnccc1OCC1CCNC1)c1ccc(F)c(-c2c(F)cccc2F)n1 (centres unmarked) [Example 8, 6-(2,6-difluorophenyl)-5-fluoro-N-(4-(pyrrolidin-3-ylmethoxy)pyridin-3-yl)picolinamide hydrochloride] | 0.5
21 | Cl.Nc1cc(F)c(-c2c(F)cccc2F)nc1C(=O)Nc1cnccc1OC1CNC1 [Example 31, 3-amino-N-(4-(azetidin-3-yloxy)pyridin-3-yl)-6-(2,6-difluorophenyl)-5-fluoropicolinamide hydrochloride] | 1.1
22 | Cl.O=C(Nc1cnccc1OC1CCCNCC1)c1nc(-c2c(F)cccc2F)ccc1F (centres unmarked) [Example 40, N-(4-(azepan-4-yloxy)pyridin-3-yl)-6-(2,6-difluorophenyl)-3-fluoropicolinamide hydrochloride] | 1.8
23 | Cl.NCCCCOc1ccncc1NC(=O)c1ccc(F)c(-c2c(F)cccc2F)n1 [Example 15, N-(4-(4-aminobutoxy)pyridin-3-yl)-6-(2,6-difluorophenyl)-5-fluoropicolinamide hydrochloride] | 0.7
24 | O=C(Nc1cnccc1OCCC(O)CO)c1ccc(F)c(-c2c(F)cccc2F)n1 (centres unmarked) [Example 21, 6-(2,6-difluorophenyl)-N-(4-(3,4-dihydroxybutoxy)pyridin-3-yl)-5-fluoropicolinamide] | 0.1
25 | Cl.NCC(CO)COc1ccncc1NC(=O)c1nc(-c2c(F)cccc2F)c(C(F)(F)F)cc1N (centres unmarked) [Example 59, 3-amino-N-(4-(3-amino-2-(hydroxymethyl)propoxy)pyridin-3-yl)-6-(2,6-difluorophenyl)-5-(trifluoromethyl)picolinamide hydrochloride] | 3.1
26 | Cl.Nc1cc(F)c(-c2c(F)cccc2F)nc1C(=O)Nc1cnccc1OCC1CCCNC1 (centres unmarked) [Example 35, 3-amino-6-(2,6-difluorophenyl)-5-fluoro-N-(4-(piperidin-3-ylmethoxy)pyridin-3-yl)picolinamide hydrochloride] | 2.1
27 | Cl.Nc1cc(C(F)(F)F)c(-c2c(F)cccc2F)nc1C(=O)Nc1cnccc1OC1CCCC(N)C1 (centres unmarked) [Example 61, 3-amino-N-(4-((3-aminocyclohexyl)oxy)pyridin-3-yl)-6-(2,6-difluorophenyl)-5-(trifluoromethyl)picolinamide hydrochloride] | 6.1
28 | Cl.NCC(CCl)COc1ccncc1NC(=O)c1ccc(C(F)(F)F)c(-c2c(F)cccc2F)n1 (centres unmarked) [Example 54, N-(4-(3-amino-2-(chloromethyl)propoxy)pyridin-3-yl)-6-(2,6-difluorophenyl)-5-(trifluoromethyl)picolinamide hydrochloride] | 1.8
29 | Cl.NCCCOc1ccncc1NC(=O)c1ccc(F)c(-c2c(F)cccc2F)n1 [Example 12, N-(4-(3-aminopropoxy)pyridin-3-yl)-6-(2,6-difluorophenyl)-5-fluoropicolinamide hydrochloride] | 0.7
